Test results published in publication PMC12892976, “Alkylation-based optimization of antifungal FPPS inhibitors yields a potent, broad-spectrum lipophilic zoledronate derivative” (mBio, 2025).
Values after ≈ are worked out from the molar mass of the structure shown. Like-named read-outs stand apart in the source and are kept apart here.

Tests used:
[1] = tested on: Aspergillus flavus; test: MIC/MFC broth microdilution (CLSI); details: ATCC204304
Protocol: (§1) Antifungal susceptibility was determined by broth microdilution according to the CLSI guidelines described in M27-Ed4 ([16]). […] MFC was determined by back-plating drug-treated cultures from MIC broths onto SDA plates. The MFC was defined as the lowest concentration from which no colonies could be cultured.

[2] = tested on: eight fungal species; test: checkerboard interaction with azoles, summary across the eight species; type: cell-based
Text: Synergy between lipophilic FPPS inhibitors and azole antifungals was investigated by determining the fractional inhibitory concentration index (FICI) (Fig. 2; Table S1 Fig. S1) ([17]). […]. Derivatives PLA9 and 11, and PDA9, 11, and 12 antagonized azoles in C. albicans, C. neoformans, and C. deuterogattii, yet were largely synergistic in C. glabrata and S. cerevisiae. […].

[3] = tested on: Aspergillus fumigatus; test: checkerboard drug interaction (FICI, MICc); type: cell-based;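 also: simplified diagonal checkerboard screen pairing antifungals with FPPS inhibitors against Aspergillus fumigatus, with FICI calculated under the Loewe additivity model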
Protocol: (§2) Drug interactions between antifungals and FPPS inhibitors were investigated using a simplified checkerboard diagonal screening method ([45]). […] FICIs were determined according to the Loewe additivity model ([17]).

[4] = tested on: Saccharomyces cerevisiae; test: checkerboard drug interaction (FICI, MICc); type: cell-based; design: INH MICc / INH MICc (ITR:INH) / INH MICc (KET:INH) / INH MICc (FLC:INH): unit not given beside the values;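 also: simplified diagonal checkerboard screen pairing antifungals with FPPS inhibitors, FICI calculated under the Loewe additivity model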
[5] = tested on: eight fungal species; test: MIC/MFC summary across the eight fungal species of Table 1; type: cell-based
Protocol: The antifungal activity of these compounds was evaluated according to CLSI guidelines ([16]).

[6] = tested on: Aspergillus flavus; test: checkerboard drug interaction (FICI, MICc);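 also: simplified diagonal checkerboard screen pairing azole antifungals with FPPS inhibitors, FICI calculated under the Loewe additivity model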; type: cell-based; design: INH MICc (KET:INH) / INH MICc (FLC:INH): unit not given beside the values; details: A. flavus
[7] = tested on: Candida glabrata; test: checkerboard drug interaction (FICI, MICc);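 as to all read-outs here: simplified diagonal checkerboard screen pairing antifungals with FPPS inhibitors, FICI calculated under the Loewe additivity model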; type: cell-based; details: C. glabrata; for INH FD (MIC-MICc fold decrease): fold decrease of inhibitor MIC
Protocol: as §2

[8] = tested on: Cryptococcus neoformans; test: MIC/MFC broth microdilution (CLSI); details: Cryptococcus neoformans;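 also: susceptibility testing followed the CLSI M27-Ed4 broth microdilution document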
Protocol: as §1

[9] = tested on: Trichophyton rubrum; test: MIC/MFC broth microdilution (CLSI); details: Trichophyton rubrum
Protocol: as §1

[10] = tested on: Candida albicans; test: checkerboard drug interaction (FICI, MICc);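 as to all read-outs here: antifungal plus FPPS inhibitor combinations on Candida albicans tested by a simplified diagonal checkerboard screen, with FICI calculated under the Loewe additivity model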; type: cell-based; details: C. albicans; for INH FD (MIC-MICc fold decrease): fold decrease of inhibitor MIC
Protocol: as §2

[11] = tested on: Candida albicans; test: MIC/MFC broth microdilution (CLSI); type: cell-based; details: Candida albicans SC5314
Protocol: as §1

[12] = tested on: Trichophyton rubrum; test: checkerboard drug interaction (FICI, MICc);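 also: simplified diagonal checkerboard screen pairing azole antifungals with FPPS inhibitors, FICI calculated under the Loewe additivity model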; type: cell-based; details: T. rubrum
Protocol: as §2

[13] = tested on: Candida glabrata; test: MIC/MFC broth microdilution (CLSI); details: Nakaseomyces glabratus, CBS138;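 also: broth microdilution following CLSI M27-Ed4, MFC taken as the lowest drug level yielding no growth once MIC wells were subcultured on SDA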
Protocol: as §1

[14] = tested on: Cryptococcus neoformans; test: checkerboard drug interaction (FICI, MICc);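 as to all read-outs here: antifungal plus FPPS inhibitor pairs tested against Cryptococcus neoformans by simplified diagonal checkerboard screening, FICI computed under the Loewe additivity model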; type: cell-based; details: C. neoformans; for INH FD (MIC-MICc fold decrease): fold decrease of inhibitor MIC
Protocol: as §2

[15] = tested on: Aspergillus fumigatus; test: MIC/MFC broth microdilution (CLSI); details: ATCC204305
Protocol: as §1

[16] = tested on: Cryptococcus deuterogattii; test: checkerboard drug interaction (FICI, MICc);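 as to all read-outs here: simplified diagonal checkerboard screen pairing antifungal drugs with FPPS inhibitors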; type: cell-based; details: C. deuterogattii; for INH FD (MIC-MICc fold decrease): fold decrease of inhibitor MIC
Protocol: as §2

[17] = tested on: HEK-293T cells; test: MTT reduction cytotoxicity assay; type: cell-based; details: Homo sapiens, HEK-293T, 72 h, MTT, 72 h
[18] = tested on: Saccharomyces cerevisiae; test: MIC/MFC broth microdilution (CLSI); type: cell-based; details: Saccharomyces cerevisiae S288c
Protocol: as §1

[19] = tested on: Cryptococcus deuterogattii; test: MIC/MFC broth microdilution (CLSI); details: Cryptococcus deuterogattii;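 also: broth microdilution per CLSI M27-Ed4. MFC is the lowest concentration yielding no colonies when MIC broths are subcultured onto SDA plates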
Protocol: as §1

[20] = Fractional Inhibitory Concentration Index, fluconazole + inhibitor
[21] = Fractional Inhibitory Concentration Index, itraconazole + inhibitor
[22] = Fractional Inhibitory Concentration Index, ketoconazole + inhibitor
[23] = MIC of the inhibitor in combination with fluconazole
[24] = MIC of the inhibitor in combination with itraconazole
[25] = MIC of the inhibitor in combination with ketoconazole
[26] = MIC-MICc fold decrease of fluconazole, negative = increase
[27] = MIC-MICc fold decrease of itraconazole, negative = increase
[28] = MIC-MICc fold decrease of ketoconazole, negative = increase
[29] = MIC-MICc fold decrease of the inhibitor, with fluconazole
[30] = MIC-MICc fold decrease of the inhibitor, with itraconazole
[31] = MIC-MICc fold decrease of the inhibitor, with ketoconazole
[32] = FLC:INH combination, MIC of the inhibitor in combination with FLC
[33] = FLC:INH combination, fold decrease of FLC MIC
[34] = ITR:INH combination, MIC of the inhibitor in combination with ITR
[35] = ITR:INH combination, fold decrease of ITR MIC
[36] = KET:INH combination, MIC of the inhibitor in combination with KET
[37] = KET:INH combination, fold decrease of KET MIC

## CCCCCCCCCCCN1CCC[C@H]1C(=O)N[C@@H](CC(=O)OC)C(=O)OC [dmPLA11]
[1]
  MFC: > 128 µg/mL
  MIC: > 128 µg/mL
[2]; any of the azole drugs in any species tested
  antagonism with azole drugs: no antagonism
[2]; geometric mean MIC in combination with azoles
  GM fungal MICc: 18
[3]; [20]
  FICI (FLC:INH): 1.25
[3]; [21]
  FICI (ITR:INH): 0.53
[3]; [22]
  FICI (KET:INH): 1.5
[3]; [23]
  INH MICc (FLC:INH): 64
[3]; [24]
  INH MICc (ITR:INH): 2
[3]; [25]
  INH MICc (KET:INH): 64
[3]; [26]
  FLC FD (FLC:INH): 4
[3]; [27]
  ITR FD (ITR:INH): 2
[3]; [28]
  KET FD (KET:INH): 2
[3]; [29]
  INH FD (FLC:INH): 1
[3]; [30]
  INH FD (ITR:INH): 32
[3]; [31]
  INH FD (KET:INH): 1
[4]; [20]
  FICI (FLC:INH): 1
[4]; [21]
  FICI (ITR:INH): 2.25
[4]; [22]
  FICI (KET:INH): 1
[4]; [23]
  INH MICc (FLC:INH): 4
[4]; [24]
  INH MICc (ITR:INH): 2
[4]; [25]
  INH MICc (KET:INH): 4
[4]; [26]
  FLC FD (FLC:INH): 2
[4]; [27]
  ITR FD (ITR:INH): -2
[4]; [28]
  KET FD (KET:INH): 2
[4]; [29]
  INH FD (FLC:INH): 2
[4]; [30]
  INH FD (ITR:INH): 4
[4]; [31]
  INH FD (KET:INH): 2
[5]; across eight species, read-out: Geometric mean MFC
  MFC: 83 µg/mL (≈ 201 µM)
[5]; geometric mean across eight species, read-out: GM fungal MIC
  MIC: 29.3 µg/mL (≈ 71 µM)
[5]; read-out: Geometric mean MIC
  MIC: 29.3 µg/mL (≈ 71 µM)
[6]; [20]
  FICI (FLC:INH): 2
[6]; [21]
  FICI (ITR:INH): 1.25
[6]; [22]
  FICI (KET:INH): 0.75
[6]; [23]
  INH MICc (FLC:INH): 256
[6]; [24]
  INH MICc (ITR:INH): 64
[6]; [25]
  INH MICc (KET:INH): 64
[6]; [26]
  FLC FD (FLC:INH): 1
[6]; [27]
  ITR FD (ITR:INH): 1
[6]; [28]
  KET FD (KET:INH): 2
[6]; [29]
  INH FD (FLC:INH): 1
[6]; [30]
  INH FD (ITR:INH): 4
[6]; [31]
  INH FD (KET:INH): 4
[7]; FLC:INH combination
  FICI: 3
  INH FD (MIC-MICc fold decrease): 1
[7]; [32]
  INH MICc: 16
[7]; [33]
  FLC FD (MIC-MICc fold decrease): 1
[7]; ITR:INH combination
  FICI: 1
  INH FD (MIC-MICc fold decrease): 4
[7]; [34]
  INH MICc: 4
[7]; [35]
  ITR FD (MIC-MICc fold decrease): 2
[7]; KET:INH combination
  FICI: 1
  INH FD (MIC-MICc fold decrease): 4
[7]; [36]
  INH MICc: 4
[7]; [37]
  KET FD (MIC-MICc fold decrease): 2
[8]
  MFC: 64 µg/mL (≈ 155 µM)
  MIC: 16 µg/mL (≈ 38.8 µM)
[9]
  MFC: > 128 µg/mL
  MIC: 16 µg/mL (≈ 38.8 µM)
[10]; FLC:INH combination
  FICI: 1.25
  INH FD (MIC-MICc fold decrease): 4
[10]; [32]
  INH MICc: 8
[10]; [33]
  FLC FD (MIC-MICc fold decrease): 1
[10]; ITR:INH combination
  FICI: 1.25
  INH FD (MIC-MICc fold decrease): 4
[10]; [34]
  INH MICc: 8
[10]; [35]
  ITR FD (MIC-MICc fold decrease): 1
[10]; KET:INH combination
  FICI: 1.25
  INH FD (MIC-MICc fold decrease): 4
[10]; [36]
  INH MICc: 8
[10]; [37]
  KET FD (MIC-MICc fold decrease): 1
[11]
  MFC: 32 µg/mL (≈ 77.6 µM)
  MIC: 32 µg/mL (≈ 77.6 µM)
[12]; [20]
  FICI (FLC:INH): 2.25
[12]; [21]
  FICI (ITR:INH): 2.13
[12]; [22]
  FICI (KET:INH): 2.25
[12]; [23]
  INH MICc (FLC:INH): 32
[12]; [24]
  INH MICc (ITR:INH): 32
[12]; [25]
  INH MICc (KET:INH): 32
[12]; [26]
  FLC FD (FLC:INH): 4
[12]; [27]
  ITR FD (ITR:INH): 8
[12]; [28]
  KET FD (KET:INH): 4
[12]; [29]
  INH FD (FLC:INH): -2
[12]; [30]
  INH FD (ITR:INH): -2
[12]; [31]
  INH FD (KET:INH): -2
[13]
  MFC: 64 µg/mL (≈ 155 µM)
  MIC: 32 µg/mL (≈ 77.6 µM)
[14]; FLC:INH combination
  FICI: 1.5
  INH FD (MIC-MICc fold decrease): 2
[14]; [32]
  INH MICc: 32
[14]; [33]
  FLC FD (MIC-MICc fold decrease): 1
[14]; ITR:INH combination
  FICI: 1.5
  INH FD (MIC-MICc fold decrease): 2
[14]; [34]
  INH MICc: 32
[14]; [35]
  ITR FD (MIC-MICc fold decrease): 1
[14]; KET:INH combination
  FICI: 1.5
  INH FD (MIC-MICc fold decrease): 2
[14]; [36]
  INH MICc: 32
[14]; [37]
  KET FD (MIC-MICc fold decrease): 1
[15]
  MFC: > 128 µg/mL
  MIC: 128 µg/mL (≈ 310 µM)
[16]; FLC:INH combination
  FICI: 1.5
  INH FD (MIC-MICc fold decrease): 1
[16]; [32]
  INH MICc: 32
[16]; [33]
  FLC FD (MIC-MICc fold decrease): 2
[16]; ITR:INH combination
  FICI: 2
  INH FD (MIC-MICc fold decrease): 1
[16]; [34]
  INH MICc: 32
[16]; [35]
  ITR FD (MIC-MICc fold decrease): 1
[16]; KET:INH combination
  FICI: 1.13
  INH FD (MIC-MICc fold decrease): 1
[16]; [36]
  INH MICc: 32
[16]; [37]
  KET FD (MIC-MICc fold decrease): 8
[17]; HEK-293T cells, read-out: IC50
  IC50: 9.09 µg/mL (≈ 22 µM)
[17]; read-out: HEK IC50
  IC50: 9.09 µg/mL (≈ 22 µM)
[18]
  MFC: 8 µg/mL (≈ 19.4 µM)
  MIC: 8 µg/mL (≈ 19.4 µM)
[19]
  MFC: 128 µg/mL (≈ 310 µM)
  MIC: 8 µg/mL (≈ 19.4 µM)
